# Experimental data: PMC3454380, “Chloroplast NADPH-Dependent Thioredoxin Reductase from Chlorella vulgaris Alleviates Environmental Stresses in Yeast Together with 2-Cys Peroxiredoxin” (PLoS ONE, 2012)
# Tests used:
# [1] = molecular target: T1, His-mCvNTRC (mature C. vulgaris NTRC) (Chlorella vulgaris, UniProt B9ZYY5); assay: NADPH oxidation at […] nm, coupled to His-mCvPrx and peroxide; assay type: biochemical; conditions: 300 uM NADPH, 100 uM peroxide, 4.0 uM His-mCvNTRC, 4.0 uM His-mCvPrx, 1 mM EDTA, 50 mM Na-phosphate pH 7.0
# T1 construct: gene CvNTR-C; mature form (NTR domain plus C-terminal Trx domain) without transit peptide, C-terminal His-tag, pET-29b(+), E. coli BL21(DE3)pLysS
# T1 sequence (B9ZYY5 58-529): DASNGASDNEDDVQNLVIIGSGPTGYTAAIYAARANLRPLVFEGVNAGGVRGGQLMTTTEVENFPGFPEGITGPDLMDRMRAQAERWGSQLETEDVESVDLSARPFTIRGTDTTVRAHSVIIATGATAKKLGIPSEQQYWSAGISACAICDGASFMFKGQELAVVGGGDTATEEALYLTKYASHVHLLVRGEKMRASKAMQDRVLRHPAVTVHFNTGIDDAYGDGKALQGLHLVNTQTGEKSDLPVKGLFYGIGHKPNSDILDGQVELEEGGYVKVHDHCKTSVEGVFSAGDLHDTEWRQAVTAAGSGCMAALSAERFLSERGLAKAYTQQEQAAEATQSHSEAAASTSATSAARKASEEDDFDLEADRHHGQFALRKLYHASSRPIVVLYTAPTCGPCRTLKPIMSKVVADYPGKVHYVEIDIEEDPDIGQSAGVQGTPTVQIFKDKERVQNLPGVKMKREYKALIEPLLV
# [2] = molecular target: T2, His-mCvPrx (mature C. vulgaris 2-Cys Prx) (Chlorella vulgaris, UniProt K4PW22); assay: NADPH oxidation at […] nm, reconstituted with His-mCvNTRC; assay type: biochemical; conditions: 300 uM NADPH, 4.0 uM His-mCvPrx, 4.0 uM His-mCvNTRC as reductant, 1 mM EDTA, 50 mM Na-phosphate pH 7.0
# T2 construct: mature form without predicted chloroplast transit peptide, bp 161-745 of cDNA, 194 residues of 239 (46-239 if ORF starts at bp 26); His-tagged, pTrc99A, E. coli JM109, five synonymous rare-codon changes
# T2 sequence (K4PW22 46-239): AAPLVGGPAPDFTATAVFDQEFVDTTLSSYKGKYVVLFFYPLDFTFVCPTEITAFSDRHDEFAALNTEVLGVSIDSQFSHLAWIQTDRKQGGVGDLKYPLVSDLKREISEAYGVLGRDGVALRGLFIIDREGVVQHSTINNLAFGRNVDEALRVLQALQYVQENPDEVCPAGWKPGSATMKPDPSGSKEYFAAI
smiles,measurement,setting,value
NC(=O)C1=CN([C@@H]2O[C@H](COP(=O)(O)OP(=O)(O)OC[C@H]3O[C@@H](n4cnc5c(N)ncnc54)[C@H](OP(=O)(O)O)[C@@H]3O)[C@@H](O)[C@H]2O)C=CC1 [NADPH],specific activity,[1],the mCvNTRC/mCvPrx system used NADPH as a specific coenzyme to reduce peroxides
O=NOO [peroxynitrite],specific activity,[2]; 100 uM peroxynitrite,the mCvNTRC/mCvPrx antioxidant system could decompose ONOO^−
CC(C)(C)OO [tert-butyl hydroperoxide],specific activity,[2]; 100 uM t-BOOH,a remarkably high rate of NADPH oxidation against both H2O2 and t-BOOH
